Assay results taken from patent publication US20260015350A1, “AZAQUINAZOLINE PAN-KRAS INHIBITORS” (Mirati Therapeutics, Inc., priority 2022, published 2026).

What was measured:
[1] = system: KRas-mediated phosphorylation of ERK in HCT116 cells; experiment: Inhibition of KRas-mediated phosphorylation of ERK (Cisbio HTRF pERK), HCT116 cells; format: cell-based; conditions: Homo sapiens; for inhibition at 0.1 µM: HCT-116, 3 h, single point, 100 nM compound, 3 hrs; for IC50: HCT-116, HTRF pERK
In short: (§1)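 Signal read by HTRF (d2/Cryptate antibody pair, 2 hr room-temperature incubation on lysate). Cells: 6,000 per well, 3 hr compound exposure. Titration: 10 uM highest, 3-fold, 10 points.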

KRas^G12V = target: T1, KRas^G12V (Homo sapiens, UniProt P01116, G12V); experiment: KRas binding assay (TR-FRET tracer displacement), KRas G12V
T1 construct: Biotinylated KRas (corresponding to amino acids 1-169, produced at Accelegan Inc.); biotin (biotinylated); purchased Accelegan Inc
T1 sequence (P01116 1-169 isoform P01116-2 G12V): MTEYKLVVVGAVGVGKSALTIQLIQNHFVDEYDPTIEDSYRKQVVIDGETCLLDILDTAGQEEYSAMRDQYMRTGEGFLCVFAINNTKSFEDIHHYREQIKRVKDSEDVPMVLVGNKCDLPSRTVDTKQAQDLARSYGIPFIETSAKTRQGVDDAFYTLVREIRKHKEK

KRas^G12D = target: T2, KRas^G12D (Homo sapiens, UniProt P01116, G12D); experiment: KRas binding assay (TR-FRET tracer displacement), KRas G12D
T2 construct: Biotinylated KRas (corresponding to amino acids 1-169, produced at Accelegan Inc.); biotin (biotinylated); purchased Accelegan Inc
T2 sequence (P01116 1-169 isoform P01116-2 G12D): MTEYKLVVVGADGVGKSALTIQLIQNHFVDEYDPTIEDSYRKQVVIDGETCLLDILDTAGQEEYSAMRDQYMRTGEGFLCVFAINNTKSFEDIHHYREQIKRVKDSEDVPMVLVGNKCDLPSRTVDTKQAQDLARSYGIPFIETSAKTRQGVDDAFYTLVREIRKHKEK

[2] = system: KRas-mediated phosphorylation of ERK in A549 cells; experiment: Inhibition of KRas-mediated phosphorylation of ERK (Cisbio HTRF pERK), A549 cells; format: cell-based; conditions: Homo sapiens; for inhibition at 0.1 µM: A549, 3 h, single point, 100 nM compound, 3 hrs; for IC50: HTRF pERK
In short: as §1

[3] = system: KRas-mediated phosphorylation of ERK in AsPC-1 cells; experiment: Inhibition of KRas-mediated phosphorylation of ERK (Cisbio HTRF pERK), AsPC-1 cells; format: cell-based; conditions: Homo sapiens; for inhibition at 0.1 µM: ASPC1, 3 h, single point, 100 nM compound, 3 hrs, AsPC-1 cells; for IC50: ASPC1, AsPC-1 cells, HTRF pERK
In short: (§2)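 Min control wells contained 0.2 uM Trametinib, while test compounds ran as 10 doses (3-fold, top 10 uM; 0.8% DMSO final) on cells for 3 hrs. After 40 mins lysis at 4° C, lysates were probed with HTRF antibodies for 2 hrs at room temperature.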

[4] = system: KRas-mediated phosphorylation of ERK in H358 cells; experiment: Inhibition of KRas-mediated phosphorylation of ERK (Cisbio HTRF pERK), H358 cells; format: cell-based; conditions: Homo sapiens; for inhibition at 0.1 µM: NCI-H358, 3 h, single point, 100 nM compound, 3 hrs; for IC50: NCI-H358, HTRF pERK
In short: as §2

KRas^G12R = target: T3, KRas^G12R (Homo sapiens, UniProt P01116, G12R); experiment: KRas binding assay (TR-FRET tracer displacement), KRas G12R
T3 construct: Biotinylated KRas (corresponding to amino acids 1-169, produced at Accelegan Inc.); biotin (biotinylated); purchased Accelegan Inc
T3 sequence (P01116 1-169 isoform P01116-2 G12R): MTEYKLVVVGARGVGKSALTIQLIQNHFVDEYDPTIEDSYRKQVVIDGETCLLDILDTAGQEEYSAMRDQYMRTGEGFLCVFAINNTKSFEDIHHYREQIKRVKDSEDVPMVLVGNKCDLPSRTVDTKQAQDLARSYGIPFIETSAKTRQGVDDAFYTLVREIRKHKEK

[5] = system: KRas-mediated phosphorylation of ERK in H727 cells; experiment: Inhibition of KRas-mediated phosphorylation of ERK (Cisbio HTRF pERK), H727 cells; format: cell-based; conditions: Homo sapiens; for inhibition at 0.1 µM: NCI-H727, 3 h, single point, 100 nM compound, 3 hrs, H727 cells; for IC50: NCI-H727, H727 cells, HTRF pERK
In short: as §2

[6] = system: KRas-mediated phosphorylation of ERK in H460 cells; experiment: Inhibition of KRas-mediated phosphorylation of ERK (Cisbio HTRF pERK), H460 cells; format: cell-based; conditions: Homo sapiens; for inhibition at 0.1 µM: NCI-H460, 3 h, single point, 100 nM compound, 3 hrs; for IC50: NCI-H460, HTRF pERK
In short: as §2

## CCc1c(F)ccc2cc(O)cc(-c3ncc4c(N5CCC[C@@](C)(O)C5)nc(OCC5(CN(C)C)CC56CCC6)nc4c3F)c12 (stereo partly drawn) [Example 705, (3R)-1-[2-[[2-[(dimethylamino)methyl]spiro[2.3]hexan-2-yl]methoxy]-7-(8-ethyl-7-fluoro-3-hydroxy-1-naphthyl)-8-fluoro-pyrido[4,3-d]pyrimidin-4-yl]-3-methyl-piperidin-3-ol]
[1]
  inhibition at 0.1 µM: -3%
KRas^G12V
  IC50: 13 nM
KRas^G12D
  IC50: 12 nM
[2]
  inhibition at 0.1 µM: 29%
[3]
  inhibition at 0.1 µM: 6%
  IC50: 598 nM
[4]
  inhibition at 0.1 µM: 34%
KRas^G12R
  IC50: 30 nM
[5]
  inhibition at 0.1 µM: 3%
  IC50: 1220 nM
[6]
  inhibition at 0.1 µM: 0%

## CCc1c(F)ccc2cc(O)cc(-c3ncc4c(N5CCC[C@@](C)(O)C5)nc(OCC5(CN(C)C)CC5(C)C)nc4c3F)c12 (stereo partly drawn) [Example 704, (3R)-1-(2-((1-((dimethylamino)methyl)-2,2-dimethylcyclopropyl)methoxy)-7-(8-ethyl-7-fluoro-3-hydroxynaphthalen-1-yl)-8-fluoropyrido[4,3-d]pyrimidin-4-yl)-3-methylpiperidin-3-ol]
[1]
  inhibition at 0.1 µM: 19%
KRas^G12V
  IC50: 5 nM
KRas^G12D
  IC50: 5 nM
[2]
  inhibition at 0.1 µM: 26%
[3]
  inhibition at 0.1 µM: 25%
  IC50: 53 nM
[4]
  inhibition at 0.1 µM: 47%
KRas^G12R
  IC50: 11 nM
[5]
  inhibition at 0.1 µM: 21%
  IC50: 223 nM
[6]
  inhibition at 0.1 µM: 40%

## CCc1c(F)ccc2cc(O)cc(-c3ncc4c(N5CCCC6(C5)NC(=O)NC6=O)nc(N5CC(N(C)C)C5)nc4c3F)c12 (centres unmarked) [Example 534, 7-(2-(3-(dimethylamino)azetidin-1-yl)-7-(8-ethyl-7-fluoro-3-hydroxynaphthalen-1-yl)-8-fluoropyrido[4,3-d]pyrimidin-4-yl)-1,3,7-triazaspiro[4.5]decane-2,4-dione]
[1]
  inhibition at 0.1 µM: -6%
KRas^G12V
  IC50: 5 nM
KRas^G12D
  IC50: 7 nM
[2]
  inhibition at 0.1 µM: -19%
[3]
  IC50: 5810 nM
[4]
  inhibition at 0.1 µM: -9%
KRas^G12R
  IC50: 2 nM
[5]
  IC50: 1620 nM
[6]
  inhibition at 0.1 µM: -6%

## Cc1c(O)cc2ccccc2c1-c1ncc2c(N3C[C@@H]4C[C@H](C3)[C@H](O)C4)nc(OC[C@@]34CCCN3C[C@H](F)C4)nc2c1F [Example 786, (1R,5R,6R)-3-(8-fluoro-2-(((2R,7aS)-2-fluorohexahydro-1H-pyrrolizin-7a-yl)methoxy)-7-(3-hydroxy-2-methylnaphthalen-1-yl)pyrido[4,3-d]pyrimidin-4-yl)-3-azabicyclo[3.2.1]octan-6-ol]
[1]
  inhibition at 0.1 µM: 0%
KRas^G12V
  IC50: 110 nM
KRas^G12D
  IC50: 423 nM
[2]
  inhibition at 0.1 µM: 19%
[3]
  inhibition at 0.1 µM: 1%
  IC50: 4960 nM
[4]
  inhibition at 0.1 µM: -3%
KRas^G12R
  IC50: 160 nM
[5]
  inhibition at 0.1 µM: 15%
  IC50: 2820 nM
[6]
  inhibition at 0.1 µM: 8%

## CCc1c(F)ccc2c(F)c(O)cc(-c3ncc4c(N5C[C@@H]6C[C@H](C5)[C@H](O)C6)nc(OC[C@@]56CCCN5C[C@H](F)C6)nc4c3F)c12 [Example 778, (1R,5R,6R)-3-(7-(8-ethyl-4,7-difluoro-3-hydroxynaphthalen-1-yl)-8-fluoro-2-(((2R,7aS)-2-fluorohexahydro-1H-pyrrolizin-7a-yl)methoxy)pyrido[4,3-d]pyrimidin-4-yl)-3-azabicyclo[3.2.1]octan-6-ol]
[1]
  inhibition at 0.1 µM: 49%
KRas^G12V
  IC50: < 2 nM
KRas^G12D
  IC50: 6 nM
[2]
  inhibition at 0.1 µM: 69%
[3]
  inhibition at 0.1 µM: 16%
  IC50: 84 nM
[4]
  inhibition at 0.1 µM: 64%
KRas^G12R
  IC50: 4 nM
[5]
  inhibition at 0.1 µM: 36%
  IC50: 45 nM
[6]
  inhibition at 0.1 µM: 74%

## CCc1c(F)ccc2cc(O)cc(-c3ncc4c(N5CCC[C@@](C)(O)C5)nc(OCC56CNCCC5C6)nc4c3F)c12 (stereo partly drawn) [Example 697, (3R)-1-(2-((3-azabicyclo[4.1.0]heptan-1-yl)methoxy)-7-(8-ethyl-7-fluoro-3-hydroxynaphthalen-1-yl)-8-fluoropyrido[4,3-d]pyrimidin-4-yl)-3-methylpiperidin-3-ol]
[1]
  inhibition at 0.1 µM: 1%
KRas^G12V
  IC50: 6 nM
KRas^G12D
  IC50: 4 nM
[2]
  inhibition at 0.1 µM: -4%
[3]
  IC50: 1860 nM
[4]
  inhibition at 0.1 µM: 5%
KRas^G12R
  IC50: 7 nM
[5]
  IC50: 4750 nM
[6]
  inhibition at 0.1 µM: 19%

## CCc1c(F)ccc2cc(O)cc(-c3ncc4c(N5CCCn6nc(C(=O)N(C)C)cc6C5)nc(N5CC(N(C)C)C5)nc4c3F)c12 [Example 535, 5-(2-(3-(dimethylamino)azetidin-1-yl)-7-(8-ethyl-7-fluoro-3-hydroxynaphthalen-1-yl)-8-fluoropyrido[4,3-d]pyrimidin-4-yl)-N,N-dimethyl-5,6,7,8-tetrahydro-4H-pyrazolo[1,5-a][1,4]diazepine-2-carboxamide]
[1]
  inhibition at 0.1 µM: -3%
KRas^G12V
  IC50: 27 nM
KRas^G12D
  IC50: 17 nM
[2]
  inhibition at 0.1 µM: -9%
[3]
  IC50: 1620 nM
[4]
  inhibition at 0.1 µM: -8%
KRas^G12R
  IC50: 44 nM
[5]
  IC50: 2190 nM
[6]
  inhibition at 0.1 µM: 16%

## CCc1c(F)ccc2cc(O)cc(-c3ncc4c(NCc5cc(C(=O)N(C)C)nn5C5CCS(=O)(=O)C5)nc(OC[C@@]56CCCN5C[C@H](F)C6)nc4c3F)c12 (single isomer, unassigned) [Example 694]
[1]
  inhibition at 0.1 µM: -10%
KRas^G12V
  IC50: 17 nM
KRas^G12D
  IC50: 106 nM
[2]
  inhibition at 0.1 µM: -8%
[3]
  IC50: 985 nM
[4]
  inhibition at 0.1 µM: 9%
KRas^G12R
  IC50: 38 nM
[5]
  IC50: 605 nM
[6]
  inhibition at 0.1 µM: -3%

## CCc1c(F)ccc2cc(O)cc(-c3ncc4c(N5CCCc6nnncc6C5)nc(OC[C@@]56CCCN5C[C@H](F)C6)nc4c3F)c12 [Example 584, 4-(4-(8,9-dihydro-5H-[1,2,3]triazino[5,4-c]azepin-6(7H)-yl)-8-fluoro-2-(((2R,7aS)-2-fluorohexahydro-1H-pyrrolizin-7a-yl)methoxy)pyrido[4,3-d]pyrimidin-7-yl)-5-ethyl-6-fluoronaphthalen-2-ol]
[1]
  inhibition at 0.1 µM: 3%
KRas^G12V
  IC50: 6 nM
KRas^G12D
  IC50: < 2 nM
[2]
  inhibition at 0.1 µM: 14%
[3]
  inhibition at 0.1 µM: -20%
  IC50: 231 nM
[4]
  inhibition at 0.1 µM: 15%
KRas^G12R
  IC50: 12 nM
[5]
  inhibition at 0.1 µM: -18%
  IC50: 981 nM
[6]
  inhibition at 0.1 µM: 11%

## CCc1c(F)ccc2cc(O)cc(-c3ncc4c(N5CC6CNC(CO)C6C5)nc(OC[C@@]56CCCN5C[C@H](F)C6)nc4c3F)c12 (stereo partly drawn) [Example 875, 5-ethyl-6-fluoro-4-(8-fluoro-2-(((2R,7aS)-2-fluorotetrahydro-1H-pyrrolizin-7a(5H)-yl)methoxy)-4-(4-(hydroxymethyl)hexahydropyrrolo[3,4-c]pyrrol-2 (1H)-yl)pyrido[4,3-d]pyrimidin-7-yl)naphthalen-2-ol]
[1]
  IC50: > 10000 nM
KRas^G12V
  IC50: 34 nM
KRas^G12D
  IC50: 17 nM
[2]
  IC50: > 10000 nM
[3]
  IC50: > 10000 nM
[4]
  IC50: > 10000 nM
KRas^G12R
  IC50: 37 nM
[5]
  IC50: > 10000 nM
[6]
  IC50: > 10000 nM

## CCc1c(F)ccc2cc(O)cc(-c3ncc4c(N5CCC[C@@](C)(O)C5)nc(OCC56CC5CCN(C)C6)nc4c3F)c12 (stereo partly drawn) [Example 701, (3R)-1-(7-(8-ethyl-7-fluoro-3-hydroxynaphthalen-1-yl)-8-fluoro-2-((3-methyl-3-azabicyclo[4.1.0]heptan-1-yl)methoxy)pyrido[4,3-d]pyrimidin-4-yl)-3-methylpiperidin-3-ol]
[1]
  inhibition at 0.1 µM: 0%
KRas^G12V
  IC50: 5 nM
KRas^G12D
  IC50: 4 nM
[2]
  inhibition at 0.1 µM: 20%
[3]
  IC50: 101 nM
[4]
  inhibition at 0.1 µM: 6%
KRas^G12R
  IC50: 9 nM
[5]
  IC50: 476 nM
[6]
  inhibition at 0.1 µM: 15%

## CCc1c(F)ccc2cc(O)cc(-c3ncc4c(N5CCCC(Cn6cccn6)C5)nc(OC[C@@]56CCCN5C[C@H](F)C6)nc4c3F)c12 (stereo partly drawn) [Example 610, 4-(4-(3-((1H-pyrazol-1-yl)methyl)piperidin-1-yl)-8-fluoro-2-(((2R,7aS)-2-fluorotetrahydro-1H-pyrrolizin-7a(5H)-yl)methoxy)pyrido[4,3-d]pyrimidin-7-yl)-5-ethyl-6-fluoronaphthalen-2-ol]
[1]
  inhibition at 0.1 µM: -5%
  IC50: 1010 nM
KRas^G12V
  IC50: 28 nM
KRas^G12D
  IC50: 66 nM
[2]
  inhibition at 0.1 µM: 10%
  IC50: 1300 nM
[3]
  IC50: 884 nM
[4]
  inhibition at 0.1 µM: 1%
  IC50: 662 nM
KRas^G12R
  IC50: 48 nM
[5]
  IC50: 660 nM
[6]
  inhibition at 0.1 µM: 31%
  IC50: 256 nM
